Data set [1] is described as follows: Metabolic stability in pooled human liver microsomes. In kind it is in vitro ADME. To be noted: pH 7.6, 1 μM compound, 1 mg/mL microsomal protein, 37° C., NADPH, read-out: Half-life − t½ human liver microsomes. An excerpt: Stability in human liver microsomes refers to the susceptibility of compounds to biotransformation in the context of selecting and/or designing drugs with favorable pharmacokinetic properties. The primary site of metabolism for many drugs is the liver. Human liver microsomes contain the cytochrome P450s (CYPs), and thus represent a model system for studying drug metabolism in vitro Enhanced stability in human liver microsomes is associated with several advantages, including increased bioavailability and adequate half-life, which can enable lower and less frequent dosing of patients.
The metabolic degradation of the test compound was assayed at 37° C. with pooled human liver microsomes. The final incubation volume of 60 μl per time point contains TRIS buffer pH 7.6 at room temperature (0.1 M), magnesium chloride (5 mM aqueous solution), microsomal protein (1 mg/mL for human) and the test compound at a final concentration of 1 μM. Following a short preincubation period at 37° C., the reactions were initiated by addition of betanicotinamide adenine dinucleotide phosphate, reduced form (NADPH, 1 mM), and terminated by transferring an aliquot into acetonitril after different time points. After centrifugation (10000 g, 5 min), an aliquot of the supernatant was assayed by HPLC-MS/MS as described above for the MDCK assay P-gp for the amount of parent compound. The half-life was determined by the slope of the semi-logarithmic plot of the concentration-time profile.
For orientation: Liver microsomes are vesicles of endoplasmic reticulum, rich in cytochrome P450 enzymes.

The target of another data set is NMDA NR1/NR2B receptor (Homo sapiens (Human), UniProt Q13224). As to the kind of experiment: In vitro NMDA NR1/NR2B cell assay (FLIPR, intracellular calcium induced by glycine/glutamate). In kind it is cell-based. To be noted: HEK293 NR1/NR2B, 20 μM glycine / 1 μM glutamate, read-out: In vitro NR2B affinity, IC50. As to the method: A human HEK293 cell line with tetracyclin-inducible expression of NMDA NR1/NR2B receptor was used as a test system for compound efficacy and potency. The cell line was purchased from ChanTest, Catalog #CT6121. Compound activity was determined by measuring the effect of compounds on intracellular calcium concentration induced by glycine/glutamate agonism in a FLIPRtetra system (Molecular Devices).
Chain of NMDA NR1/NR2B receptor (Q13224 27-1484, other chains not shown): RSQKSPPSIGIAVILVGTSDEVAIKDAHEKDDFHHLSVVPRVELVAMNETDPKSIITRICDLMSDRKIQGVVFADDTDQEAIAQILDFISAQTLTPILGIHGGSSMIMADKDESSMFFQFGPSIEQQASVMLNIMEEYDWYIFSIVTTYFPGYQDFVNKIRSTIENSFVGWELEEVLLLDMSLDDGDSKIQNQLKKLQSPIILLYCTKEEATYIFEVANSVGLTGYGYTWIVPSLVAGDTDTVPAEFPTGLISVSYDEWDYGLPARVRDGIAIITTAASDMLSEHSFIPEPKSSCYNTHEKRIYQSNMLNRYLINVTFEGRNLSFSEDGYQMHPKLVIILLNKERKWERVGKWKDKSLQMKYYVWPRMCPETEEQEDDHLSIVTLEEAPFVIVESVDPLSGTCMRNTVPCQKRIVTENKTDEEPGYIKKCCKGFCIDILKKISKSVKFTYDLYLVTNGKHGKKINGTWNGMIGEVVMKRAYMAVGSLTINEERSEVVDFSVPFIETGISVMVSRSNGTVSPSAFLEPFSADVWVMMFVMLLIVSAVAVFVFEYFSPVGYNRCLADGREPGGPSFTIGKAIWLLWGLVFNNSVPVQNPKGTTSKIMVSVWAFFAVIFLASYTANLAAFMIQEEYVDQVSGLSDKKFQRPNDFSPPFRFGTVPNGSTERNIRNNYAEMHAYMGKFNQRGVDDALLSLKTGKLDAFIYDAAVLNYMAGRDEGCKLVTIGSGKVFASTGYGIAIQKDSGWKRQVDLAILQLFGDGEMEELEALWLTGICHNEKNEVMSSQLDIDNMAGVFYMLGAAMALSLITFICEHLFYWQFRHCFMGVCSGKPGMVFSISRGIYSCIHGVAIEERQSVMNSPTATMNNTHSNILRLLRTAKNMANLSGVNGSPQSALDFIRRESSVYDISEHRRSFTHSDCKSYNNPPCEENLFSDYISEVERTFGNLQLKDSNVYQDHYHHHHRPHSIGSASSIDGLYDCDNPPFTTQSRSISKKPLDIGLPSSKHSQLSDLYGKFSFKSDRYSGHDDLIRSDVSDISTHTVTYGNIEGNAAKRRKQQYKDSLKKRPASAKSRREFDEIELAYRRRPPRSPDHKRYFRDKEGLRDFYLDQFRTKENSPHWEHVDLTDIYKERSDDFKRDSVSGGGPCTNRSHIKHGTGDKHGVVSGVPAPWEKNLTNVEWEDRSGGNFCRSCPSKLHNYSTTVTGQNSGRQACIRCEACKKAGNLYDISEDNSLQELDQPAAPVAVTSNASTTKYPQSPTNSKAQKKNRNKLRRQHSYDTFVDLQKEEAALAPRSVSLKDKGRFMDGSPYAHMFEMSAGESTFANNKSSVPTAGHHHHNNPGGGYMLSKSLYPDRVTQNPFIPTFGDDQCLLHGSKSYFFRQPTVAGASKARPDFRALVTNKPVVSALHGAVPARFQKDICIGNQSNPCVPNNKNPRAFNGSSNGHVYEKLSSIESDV
The cells were obtained as frozen cells in cryo-vials and stored until use at −150° C. Cells were grown in culture medium (DMEM/F12, 10% FBS, 5 μg/mL Blasticidin, 150 μg/mL Zeozin, 500 μg/mL Geneticin). […] For sub-culturing the cells were detached from flasks by Versene. For the assay, cells were detached, washed twice with induction medium (DMEM/F12 without glutamine, 10% FBS, 2 μg/mL Tetracycline, 2 mM Ketamine) and seeded to 384 well pure coat amine plates (Becton Dickinson, 50000 cells per well in 50 μl) 48 h prior to assay in induction medium.
The test compounds were dissolved in 100% DMSO at a concentration of 10 mM and in a first step diluted in DMSO to a concentration of 5 mM, followed by serial dilution steps in 100% DMSO. Dilution factor and number of dilution steps may vary according to needs. Typically 8 different concentrations by 1:5 dilutions were prepared in duplicate, further intermediate dilutions (1:37.5) of the substances were carried out with aqueous assay buffer (137 mM NaCl, 4 mM KCl, 1.8 mM CaCl2), 10 mM HEPES, 10 mM Glucose, pH 7.4) resulting in a compound concentration 3 times above the final test concentration and DMSO at 2.7% resulting in 0.9% final DMSO concentration in the assay.
At the assay day cells were washed 3× with assay buffer (as described above), 10 μL buffer remained in the wells after washing. 10 μL Ca kit loading buffer (AAT Bioquest; prepared from the kit containing the following components: Component A: Fluo-8 NW dissolved in 200 μL DMSO and 20 μl of this solution are mixed with 10 ml buffer prepared out of component B and C, Component B: 10× Pluronic® F127 Plus diluted 1:10 in component C, Component C: HHBS (Hanks with 20 mM Hepes) was added to the cells and the plates were incubated with lid for 60 minutes at room temperature. 20 μl assay buffer containing 60 μM glycine (20 μM final) and 3 μM glutamate (1 μM final) was added to column 1-23, column 24 got assay buffer without glycine/glutamate to serve as negative unstimulated control. Fluorescence (indicating the calcium influx as a result of the NR1/NR2B ion channel activation) was read on the FLIPRtetra device for 60 seconds to monitor the glutamate induced effects. After 2 minutes 20 μL of compound dilution prepared as described above or controls (row 1-22) in assay buffer were carefully added to the wells. […] The average of 2 measurements at 5 minutes and 5 min 10 seconds after compound addition is calculated and further used for IC50 calculations. Each assay microtiter compound dilution plate contained wells (in column 23 or 24) with DMSO controls instead of compound as controls for glycine/glutamate induced fluorescence (high controls) and wells with 1 μM of a reference NR2B NAM as low controls (Compound 22; reference: Layton, Mark E et al, ACS Chemical Neuroscience 2011, 2(7), 352-362).
The output file of the reader contains the well number and measured average fluorescence units. For data evaluation and calculation, the measurement of the low control was set as 0% control and the measurement of the high control was set as 100% control. The IC50 values were calculated using the standard 4 parameter logistic regression formula. Calculation: [y=(a−d)/(1+(x/c)^b)+d], a=low value, d=high value; x=conc M; c=IC50 M; b=slope.

For orientation: half-life means the time in which the quantity being followed falls by half. Broadly, the IC50 is the midpoint of a concentration-inhibition curve.

Some results are limits rather than exact numbers.

For `CNC(=O)[C@@H]1CN(Cc2cnc(Oc3ccc(F)cc3)cn2)CCO1` [Example 1], the half-life at 1 µM in data set [1] was greater than 2.17 h. At NMDA NR1/NR2B receptor, the IC50 amounted to 968 nM.

Turning to `CNC(=O)[C@@H]1CN(Cc2cnc(Oc3ccc(C)cc3F)cn2)CCO1` [Example 2], the half-life at 1 µM in data set [1] is greater than 2.17 h. Also, the IC50 on NMDA NR1/NR2B receptor worked out at 123 nM.

For the compound `CNC(=O)[C@@H]1CN(Cc2cnc(Oc3ccc(C)cc3)cn2)CCO1` [Example 3], the half-life at 1 µM in data set [1] was greater than 2.17 h. Also, the IC50 on NMDA NR1/NR2B receptor turned out to be 690 nM.

With `CNC(=O)[C@@H]1CN(Cc2cnc(Oc3ccc(C)cc3C)cn2)CCO1` [Example 4], in data set [1], the half-life at 1 µM was greater than 2.17 h. Moreover, the IC50 on NMDA NR1/NR2B receptor came out at 1200 nM.

As to `CNC(=O)[C@@H]1CN(Cc2cnc(Oc3ccc(Cl)cc3F)cn2)CCO1` [Example 5], the half-life at 1 µM in data set [1] is greater than 2.17 h. The IC50 at NMDA NR1/NR2B receptor was found to be 110 nM.

For `CNC(=O)[C@@H]1CN(Cc2cnc(Oc3ccc(F)cc3F)cn2)CCO1` [Example 6], the half-life at 1 µM in data set [1] is greater than 2.17 h. Further, the IC50 on NMDA NR1/NR2B receptor amounted to 87 nM.

As to `CNC(=O)[C@@H]1CN(Cc2cnc(Oc3ccc(Cl)cc3)cn2)CCO1` [Example 7], the half-life at 1 µM in data set [1] was greater than 2.17 h. In addition, the IC50 at NMDA NR1/NR2B receptor came to 1000 nM.

Turning to `CNC(=O)[C@@H]1CN(Cc2cnc(Oc3ccc(F)cc3C)cn2)CCO1` [Example 8], the half-life at 1 µM in data set [1] was greater than 2.17 h. Moreover, at NMDA NR1/NR2B receptor, the IC50 came to 856 nM.

On to `CNC(=O)[C@@H]1CN(Cc2cnc(Oc3ccccc3F)cn2)CCO1` [Example 9], for which, in data set [1], the half-life at 1 µM is greater than 2.17 h. Moreover, on NMDA NR1/NR2B receptor, the IC50 came out at 210 nM.

For `CNC(=O)[C@@H]1CN(Cc2cnc(Oc3ccccc3Cl)cn2)CCO1` [Example 18], the half-life at 1 µM in data set [1] was greater than 2.17 h. Also, the IC50 on NMDA NR1/NR2B receptor was determined as 222 nM.

With `CCNC(=O)[C@@H]1CN(Cc2cnc(Oc3ccc(F)cc3F)cn2)CCO1` [Example 30], in data set [1], the half-life at 1 µM is greater than 2.17 h. The IC50 on NMDA NR1/NR2B receptor was 595 nM.

Regarding `CCNC(=O)[C@@H]1CN(Cc2cnc(Oc3ccc(C)cc3F)cn2)CCO1` [Example 31], in data set [1], the half-life at 1 µM is greater than 2.17 h. The IC50 at NMDA NR1/NR2B receptor was determined as 524 nM.

For the compound `CCNC(=O)[C@@H]1CN(Cc2cnc(Oc3ccccc3Cl)cn2)CCO1` [Example 33], the half-life at 1 µM in data set [1] was greater than 2.17 h. Further, the IC50 on NMDA NR1/NR2B receptor stood at 807 nM.
